Measured values reported in publication PMC10949195, “Exponential Combination of a and e/g Intracellular Peptide Libraries Identifies a Selective ATF3 Inhibitor” (ACS Chemical Biology, 2024).

Experiments:
ATF3 = target: T1, ATF3 (Homo sapiens, UniProt P18847); experiment: CD thermal denaturation of peptide mixed 1:1 with ATF3; type: binding; settings: peptide incubated with ATF3; CD signal at 222 nm, 1 °C increments; 150 μM total peptide; 10 mM potassium phosphate, 100 mM potassium fluoride, pH 7.0; two-state denaturation model
T1 construct: We focus on the selective targeting of the ATF3 leucine zipper dimerization domain using intracellular peptide library screening; made in house; host or cells: chemical solid-phase peptide synthesis (no expression host)
T1 sequence (P18847 110-143): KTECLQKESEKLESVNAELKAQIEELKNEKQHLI
From the text: Following the observed significant increase in global secondary structure content for the ATF3-ATF3W_aeg complex relative to component peptides (Figure 6), we next analyzed the stability of the complex by undertaking thermal denaturation experiments (Figure 7). […] Moreover, consistent with spectral data, the clear increase from the average profile of the component peptides relative to that of the measured is most pronounced in the combined construct (Figure 7, red hash vs black). This provides robust additional evidence for a preferential interaction between ATF3 and ATF3W_aeg that is improved over either the core a or electrostatic e/g constructs.
Shown are thermal stabilities of peptide pairs measured via temperature dependence of the CD signal at 222 nm. The thermal denaturation profiles for (a) ATF3-ATF3W_a, (b) ATF3-ATF3W_eg, and (c) ATF3-ATF3W_aeg show a substantial increase in the transition midpoint (Tm = 59 °C) relative to component peptides (black vs red hash). Experiments were performed in 10 mM potassium phosphate and 100 mM potassium fluoride (pH 7.0). All spectra were recorded at 1 °C increments at a total peptide concentration of 150 μM and fitted to a two-state denaturation model.
Thermal denaturation experiments were performed at 150 μM total protein concentration in 10 mM potassium phosphate and 100 mM potassium fluoride, pH 7, using an Applied Photophysics Chirascan CD instrument (Leatherhead, UK) as previously described.[23]

[1] = CD spectra of peptide in isolation (helicity, 222/208 ratio); type: physicochemical; settings: 20 °C, 150 μM total peptide, pH 7.0
Method: ATF3, ATF3W_a, and ATF3W_eg and combined hit sequence ATF3W_aeg were synthesized using solid phase peptide synthesis, purified by RP-HPLC, and verified for correct mass using ESI-MS (Figure S3), after which circular dichroism (CD) was used to characterize both ATF3 and antagonist peptides for helicity and interactions as homodimers, as well as heterodimers with the ATF3 target. Global secondary analysis of both homodimeric and heterodimeric systems was carried out at a total peptide concentration of 150 μM to keep equimolar concentrations of each component helix. The 222/208 ratio was used to provide evidence on whether the helices were likely to be monomeric or adopt quaternary structure.[13] […] Furthermore, incubation of ATF3 with ATF3W_aeg elicited a significant conformational change in the sample relative to the average of the component peptides (Figure 6d black line vs red hash), providing compelling evidence for an interaction.[14] In addition, the component PCA hits were examined using CD.
Figure 6 CD spectra data indicates a ATF3-ATF3W_aeg interaction. […] Spectra were next measured at 20 and 5 °C and again post-thermal denaturation (PM 20 °C to establish reversible that unfolding is fully reversible) at a total peptide concentration of 150 μM and presented as mean residue ellipticity (MRE). […]

Serum stability = type: in vitro ADME; settings: human serum (Merck), 75 uL of 600 uM stock in 1425 uL serum, 37 °C, 3-day time course; LC-MS; averages of three experimental repeats
Method: TableS1: Shown are peptide permeability assay on ATF3W-aeg. […]
peptide holding on the membrane.
Peptide permeability assay: To evaluate the peptide permeability, the BD™ pre-coated PAMPA plate system was employed. The 300uL of 200uM peptide in PBS buffer were added in the well of the receiver plate, and slowly placed the filter plate with the 200uL PBS buffer per well on the receiver plate. The peptide concentrations in both plates were determined by UV spectroscopy after the assembly plate system were incubated at room temperature for 5 hours, and the peptide permeability and mass retention were calculated by using the PAMPA plate system formula which recommended in the manufacture manual.
Permeability (in unit of cm/s):
Mass retention: 1 - [CD(t)*VD + CA(t)*VA ]/( C0 * VD)
C0 = initial compound concentration in donor well (mM)
CD(t) = compound concentration in donor well at time t (mM)
CA(t) = compound concentration in acceptor well at time t (mM)
VD = donor well volume = 0.3 mL
VA = acceptor well volume = 0.2 mL […]
Serum stability: The quantity of peptide detected by LC-MS is plotted relative to the starting point […]
Fig S5: Shown are serum stability of ATF3W-aeg. The quantity of peptide detected by LC-MS is plotted […]
The supernatant was analysed by LC-MS, and the peptide was quantified as the sum of the peaks with the two largest intensities1.

Question: Which results are given for “Ac-ELAALEQKAYALKQENAALEKEVAALEQKIAALK-NH2 (N-terminus and C-terminus assumed) [ATF3W_aeg]”?
Answer: transition midpoint (Tm) of heterodimer with ATF3 (ATF3): 60 °C; fractional helicity (fH), peptide in isolation ([1]; 10 mM potassium phosphate, 100 mM potassium fluoride): ~38%; 222/208 ratio, peptide in isolation [1]: 0.76; serum stability, peptide quantity relative to starting point (Serum stability): completely degraded
